Test results: patent publication US10301267B2, “Compounds” (AstraZeneca AB, priority 2006, dated 2019)

The molecules below were run against FGFR1 active kinase (Homo sapiens, UniProt P11362) (assay: FGFR Kinase assay - Caliper Echo Dosing). Details: FGFR1 7.2 nM, 408 uM ATP, acoustic dosing; geometric mean of n.
Format: biochemical
Procedure: FGFR Kinase Assay—Caliper Echo Dosing
To determine inhibition of FGFR activity, kinase assays were conducted using Caliper technology.
Kinase activity assays were performed in Greiner 384-well low volume plates, with a total reaction volume of 12 ul per well. Final concentration of FGFR1 active kinase in each reaction well was 7.2 nM. The substrate for each assay was a custom peptide with fluorescent tag (13 amino acids in length, […] with the fluorescene tag on the first K).
Compounds were dispensed directly in to assay plates using a Labcyte Echo 550 acoustic droplet ejection unit. Each well received 120 nl of DMSO containing compound such that the final concentration of compound in the assay prior to the addition of the stop solution ranged between 30 uM and 30 pM. In addition to compounds each plate carried maximum and minimum control wells, the max wells contained 120 nl of DMSO and the min wells contained 120 nl of 10 mM staurosporine (LC Laboratories, MA 01801, USA Catalogue No. S-9300). The Enzyme (at 7.2 nM [final]) and Substrate (at 3.6 uM [final]) were added separately to the compound plates, in reaction buffer [comprising: 50 mM MOPS (Sigma, Catalogue No. M1254)—pH 6.5, 0.004% Triton (Sigma, Catalogue No. X-100), 2.4 mM DTT, 12 mM MgCl2, 408 uM ATP] resulting in a final DMSO concentration in the reaction mix of 1%.
Assay plates were incubated at room temperature for 1.5 h, before the reaction was stopped with the addition of buffer [comprising: 100 mM HEPES—pH7.5, 0.033% Brij-35 (Sigma Catalogue No. B4184), 0.22% Caliper Coating Reagent #3 (Caliper Life Sciences Catalogue No. 760050), 88 mM EDTA, 5% DMSO]. Stopped assay plates were then read using the Caliper LabChip® LC3000 (which uses microfludics to measure a shift in mobility between fluorescent labelled peptide and the FGFR1 kinase—phosphorylated form of this peptide).
In the assay, compounds were tested at a range of concentrations. […] Percentage inhibition at 1 uM, as expressed herein, is a calculated value based on the curve fit that was generated experimentally. From the fitted curve plot, the effect of compound at a concentration of 1 uM was calculated as a percentage inhibition. The IC50 is the concentration of compound, which inhibits FGFR1 kinase activity by 50% in the context of this assay. This value is calculated using a standard curve fitting software package Origin™.

Sequence of FGFR1 active kinase (P11362 22-822): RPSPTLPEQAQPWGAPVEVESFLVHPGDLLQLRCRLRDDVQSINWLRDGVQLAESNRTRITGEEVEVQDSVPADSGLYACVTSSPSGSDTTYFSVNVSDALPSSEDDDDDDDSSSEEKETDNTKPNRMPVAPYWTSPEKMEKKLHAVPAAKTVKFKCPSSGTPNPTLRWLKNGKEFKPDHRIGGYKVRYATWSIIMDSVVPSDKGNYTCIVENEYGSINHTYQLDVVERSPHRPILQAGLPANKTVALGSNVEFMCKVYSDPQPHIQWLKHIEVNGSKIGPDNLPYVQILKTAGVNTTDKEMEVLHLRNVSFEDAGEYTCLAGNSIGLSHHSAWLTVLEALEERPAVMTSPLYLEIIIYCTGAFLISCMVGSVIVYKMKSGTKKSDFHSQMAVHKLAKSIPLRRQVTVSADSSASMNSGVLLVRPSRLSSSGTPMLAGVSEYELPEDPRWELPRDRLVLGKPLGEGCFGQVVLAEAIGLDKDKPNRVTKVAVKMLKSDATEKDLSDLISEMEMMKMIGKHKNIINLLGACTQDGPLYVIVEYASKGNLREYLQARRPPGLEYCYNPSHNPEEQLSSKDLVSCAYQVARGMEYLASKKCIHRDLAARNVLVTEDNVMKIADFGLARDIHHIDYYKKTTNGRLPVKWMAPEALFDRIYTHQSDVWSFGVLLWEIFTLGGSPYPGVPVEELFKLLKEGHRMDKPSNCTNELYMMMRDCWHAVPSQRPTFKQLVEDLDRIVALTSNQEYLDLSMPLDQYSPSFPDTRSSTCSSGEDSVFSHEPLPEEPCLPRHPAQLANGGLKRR

Row | IC50 [nM] | Compound
1 | 3 | COc1cc(CCc2cc(NC(=O)c3cnc(N4CCN5CCCC5C4)nc3)[nH]n2)cc(OC)c1 (stereo not drawn) [Example 128, 2-(3,4,6,7,8,8a-hexahydro-1H-pyrrolo[2,1-c]pyrazin-2-yl)-N-[5-[2-(3,5-dimethoxyphenyl)ethyl]-2H-pyrazol-3-yl]pyrimidine-5-carboxamide]
2 | 1.3 | COc1cc(COc2cc(NC(=O)c3ccc(N4CCN5CCCC5C4)cc3)[nH]n2)cc(OC)c1 (stereo not drawn) [Example 104, 4-(3,4,6,7,8,8a-hexahydro-1H-pyrrolo[2,1-c]pyrazin-2-yl)-N-[5-[(3,5-dimethoxyphenyl)methoxy]-2H-pyrazol-3-yl]benzamide]
3 | 0.71 | CCN1CCCN(c2ccc(C(=O)Nc3cc(CCc4cc(OC)cc(OC)c4)n[nH]3)cc2)CC1 [Example 170, N-[5-[2-(3,5-dimethoxyphenyl)ethyl]-2H-pyrazol-3-yl]-4-(4-ethyl-1,4-diazepan-1-yl)benzamide]
4 | 1.3 | COc1cc(COc2cc(NC(=O)c3cnc(N4CCN5CCCC5C4)cn3)[nH]n2)cc(OC)c1 (stereo not drawn) [Example 122, 5-(3,4,6,7,8,8a-Hexahydro-1H-pyrrolo[2,1-c]pyrazin-2-yl)-N-[5-[(3,5-dimethoxyphenyl)methoxy]-2H-pyrazol-3-yl]pyrazine-2-carboxamide]
5 | 0.68 | CCN1CCN(c2ccc(C(=O)Nc3cc(OCc4cc(OC)cc(OC)c4)n[nH]3)cc2)CC1 [Example 179, N-[5-[(3,5-dimethoxyphenyl)methoxy]-2H-pyrazol-3-yl]-4-(4-ethylpiperazin-1-yl)benzamide]
6 | 3.7 | COc1cc(CCc2cc(NC(=O)c3cnc(N4CCCN(C5CC5)CC4)cn3)[nH]n2)cc(OC)c1 [Example 174, 5-(4-cyclopropyl-1,4-diazepan-1-yl)-N-[5-[2-(3,5-dimethoxyphenyl)ethyl]-2H-pyrazol-3-yl]pyrazine-2-carboxamide]
7 | 1.8 | COc1cc(COc2cc(NC(=O)c3ccc(N4C[C@@H](C)N[C@@H](C)C4)s3)[nH]n2)cc(OC)c1 [Example 147, N-[5-[(3,5-dimethoxyphenyl)methoxy]-2H-pyrazol-3-yl]-5-[(3S,5R)-3,5-dimethylpiperazin-1-yl]thiophene-2-carboxamide]
8 | 1.7 | CCN1CCN(c2ccc(C(=O)Nc3cc(CCc4cc(OC)cc(OC)c4)n[nH]3)cc2)CC1 [Example 180, N-[5-[2-(3,5-dimethoxyphenyl)ethyl]-2H-pyrazol-3-yl]-4-(4-ethylpiperazin-1-yl)benzamide]
9 | 130 | COc1cc(CCc2cc(NC(=O)c3cnc(N4CCN5CCCCC5C4)cn3)[nH]n2)cc(OC)c1 (stereo not drawn) [Example 105, 5-(1,3,4,6,7,8,9,9a-Octahydropyrido[2,1-c]pyrazin-2-yl)-N-[5-[2-(3,5-dimethoxyphenyl)ethyl]-2H-pyrazol-3-yl]pyrazine-2-carboxamide]
10 | 1.3 | COc1cc(CCc2cc(NC(=O)c3cnc(C4CCN(C)CC4)cn3)[nH]n2)cc(OC)c1 [Example 152, N-[5-[2-(3,5-dimethoxyphenyl)ethyl]-2H-pyrazol-3-yl]-5-(1-methylpiperidin-4-yl)pyrazine-2-carboxamide]
11 | 2.7 | CCN1CCN(c2ncc(C(=O)Nc3cc(CCc4cc(OC)cc(OC)c4)n[nH]3)cn2)CC1C (stereo not drawn) [Example 143, N-[5-[2-(3,5-dimethoxyphenyl)ethyl]-2H-pyrazol-3-yl]-2-(4-ethyl-3-methylpiperazin-1-yl)pyrimidine-5-carboxamide]
12 | 3.4 | C=CCN1CCCN(c2cnc(C(=O)Nc3cc(CCc4cc(OC)cc(OC)c4)n[nH]3)cn2)CC1 [Example 172, N-[5-[2-(3,5-dimethoxyphenyl)ethyl]-2H-pyrazol-3-yl]-5-(4-prop-2-enyl-1,4-diazepan-1-yl)pyrazine-2-carboxamide]
13 | 4.4 | COc1cc(CCc2cc(NC(=O)c3cnc(N4CCN[C@@H](C(C)C)C4)nc3)[nH]n2)cc(OC)c1 [Example 149, N-[5-[2-(3,5-dimethoxyphenyl)ethyl]-2H-pyrazol-3-yl]-2-[(3S)-3-propan-2-ylpiperazin-1-yl]pyrimidine-5-carboxamide]
14 | 1.5 | COc1cc(COc2cc(NC(=O)c3cnc(N4CCN(C)C(C)C4)cn3)[nH]n2)cc(OC)c1 (stereo not drawn) [Example 124, N-[5-[(3,5-Dimethoxyphenyl)methoxy]-2H-pyrazol-3-yl]-5-(3,4-dimethylpiperazin-1-yl)pyrazine-2-carboxamide]
15 | 2.6 | COc1cc(CCc2cc(NC(=O)c3cnc(N4CCN(C)C(C)C4)nc3)[nH]n2)cc(OC)c1 (stereo not drawn) [Example 135, N-[5-[2-(3,5-dimethoxyphenyl)ethyl]-2H-pyrazol-3-yl]-2-(3,4-dimethylpiperazin-1-yl)pyrimidine-5-carboxamide]
16 | 0.63 | COc1cc(CCc2cc(NC(=O)c3cnc(N4CCCN(C(C)C)CC4)cn3)[nH]n2)cc(OC)c1 [Example 167, N-[5-[2-(3,5-dimethoxyphenyl)ethyl]-2H-pyrazol-3-yl]-5-(4-propan-2-yl-1,4-diazepan-1-yl)pyrazine-2-carboxamide]
17 | 2.6 | COc1cc(COc2cc(NC(=O)c3cnc(N4C[C@@H](C)N(C)[C@@H](C)C4)nc3)[nH]n2)cc(OC)c1 [Example 138, N-(3-(3,5-dimethoxybenzyloxy)-1H-pyrazol-5-yl)-2-((3R,5S)-3,4,5-trimethylpiperazin-1-yl)pyrimidine-5-carboxamide]
18 | 0.76 | COc1cc(COc2cc(NC(=O)c3ccc(N4CCNC(C)(C)C4)cc3)[nH]n2)cc(OC)c1 [Example 111, N-[5-[(3,5-dimethoxyphenyl)methoxy]-2H-pyrazol-3-yl]-4-(3,3-dimethylpiperazin-1-yl)benzamide]
19 | 2 | COc1cc(CCc2cc(NC(=O)c3cnc(N4CCNC(C)(C)C4)cn3)[nH]n2)cc(OC)c1 [Example 108, N-[5-[2-(3,5-dimethoxyphenyl)ethyl]-2H-pyrazol-3-yl]-5-(3,3-dimethylpiperazin-1-yl)pyrazine-2-carboxamide]
20 | 0.54 | COc1cc(CCc2cc(NC(=O)c3ccc(N4CC(C)N(C)C(C)C4)cc3)n[nH]2)cc(OC)c1 (stereo not drawn) [Example 96, N-[5-[2-(3,5-Dimethoxyphenyl)ethyl]-1H-pyrazol-3-yl]-4-(3,4,5-trimethylpiperazin-1-yl)benzamide]
21 | 1 | COc1cc(CCc2cc(NC(=O)c3ccc(N4CCN(C)CC4)s3)[nH]n2)cc(OC)c1 [Example 106, N-[5-[2-(3,5-dimethoxyphenyl)ethyl]-2H-pyrazol-3-yl]-5-(4-methylpiperazin-1-yl)thiophene-2-carboxamide]
22 | 1.3 | COc1cc(CCc2cc(NC(=O)c3ccc(N4CC[N+](C)([O-])CC4)cc3)[nH]n2)cc(OC)c1 [Example 117, N-[5-[2-(3,5-Dimethoxyphenyl)ethyl]-2H-pyrazol-3-yl]-4-(4-methyl-4-oxidopiperazin-4-ium-1-yl)benzamide]
23 | 3 | CNC1CCN(c2cnc(C(=O)Nc3cc(CCc4cc(OC)cc(OC)c4)n[nH]3)cn2)C1 (stereo not drawn) [Example 161, N-[5-[2-(3,5-dimethoxyphenyl)ethyl]-2H-pyrazol-3-yl]-5-(3-methylaminopyrrolidin-1-yl)pyrazine-2-carboxamide]
24 | 1.1 | COc1cc(COc2cc(NC(=O)c3ccc(N4CCN(C5CCC5)CC4)cc3)[nH]n2)cc(OC)c1 [Example 118, 4-(4-Cyclobutylpiperazin-1-yl)-N-[5-[(3,5-dimethoxyphenyl)methoxy]-2H-pyrazol-3-yl]benzamide]
